Common to all, as to format: functional
One assay deals with Escherichia coli. Briefly: Antimicrobial activity against Escherichia coli.
The subject of the next assay is Bacillus subtilis. As to the kind of experiment: Antimicrobial activity against Bacillus subtilis.
Another assay concerns Pseudomonas aeruginosa. As to the kind of experiment: Antimicrobial activity against Pseudomonas aeruginosa.
For another assay, the system named is Staphylococcus aureus. Briefly: Antimicrobial activity against Staphylococcus aureus.
In another assay the test system is Candida albicans. As to the kind of experiment: Antifungal activity against Candida albicans.
The next assay has as its system Aspergillus niger. Briefly: Antifungal activity against Aspergillus niger.

SMILES strings stand for the structures. ≈ marks a conversion by molar mass, not a printed value.

The MIC is the lowest concentration that inhibits growth of the organism. Turning to `COc1cc(/C=C2\SC(=O)N(Cc3ccc(-c4ccccc4-c4nnn[nH]4)cc3)C2=O)cc(OC)c1OC`, the MIC in the assay on Escherichia coli and in the assay with Bacillus subtilis was 7.75 to 35.4 µg/mL (≈ 14.6 to 66.9 µM) in each case.
For the compound `Cc1ccc2c(c1)cc(/C=C/C(=O)c1ccccn1)c1nnnn12`, the MIC with Escherichia coli, in the assay on Pseudomonas aeruginosa, with Staphylococcus aureus, in the assay on Candida albicans and against Aspergillus niger was 6.25 to 100 µg/mL (≈ 19.8 to 317 µM) in each case.
`Cc1ccc2c(c1)cc(C1CC(c3ccc(Cl)cc3)=NN1C(N)=S)c1nnnn12` (stereo unspecified): the MIC with Escherichia coli, with Pseudomonas aeruginosa, with Staphylococcus aureus, in the assay with Candida albicans and with Aspergillus niger was 3.12 to 100 µg/mL (≈ 7.41 to 237 µM) throughout.
Take `COc1ccc(Nc2c(-c3cc4ccccc4n4nnnc34)nc3sccn23)cc1`: the MIC against Escherichia coli, in the assay on Pseudomonas aeruginosa and in the assay on Staphylococcus aureus was more than 320 µg/mL throughout.
Take `Cc1cccc2oc(-c3ccc(F)cc3)c(OCc3nnn[nH]3)c(=O)c12`: the MIC with Escherichia coli, in the assay on Pseudomonas aeruginosa, with Staphylococcus aureus and in the assay on Bacillus subtilis was 50 to 400 µg/mL (≈ 142 to 1140 µM) in each case.
Consider `COc1ccc(/C=C2\SC(=O)N(Cc3ccc(-c4ccccc4-c4nnn[nH]4)cc3)C2=O)cc1OC`, for which the MIC in the assay with Escherichia coli and in the assay with Bacillus subtilis was 7.75 to 35.4 µg/mL (≈ 15.5 to 70.9 µM) in each case.
For `COc1ccc(C(=O)/C=C/c2cc3cc(C)ccc3n3nnnc23)cc1`, the minimal inhibitory concentration (MIC) in the assay with Escherichia coli, against Pseudomonas aeruginosa, against Staphylococcus aureus, in the assay with Candida albicans and in the assay on Aspergillus niger was 6.25 to 100 µg/mL (≈ 18.1 to 290 µM) throughout.
In the case of `c1cc(-c2nnn[nH]2)cc(-c2nnn[nH]2)c1`, the minimal inhibitory concentration (MIC) in the assay with Escherichia coli, in the assay on Pseudomonas aeruginosa and in the assay with Staphylococcus aureus was 125 to 1000 µg/mL (≈ 584 to 4670 µM) throughout.
For the compound `O=C1S/C(=C\c2ccc(F)cc2)C(=O)N1Cc1ccc(-c2ccccc2-c2nnn[nH]2)cc1`, the MIC in the assay on Escherichia coli and in the assay with Bacillus subtilis was 7.75 to 35.4 µg/mL (≈ 16.9 to 77.4 µM) throughout.
In the case of `COc1cc(/C=C2\SC(=O)N(Cc3ccc(-c4ccccc4-c4nnn[nH]4)cc3)C2=O)cc(OC)c1`, the minimum inhibitory concentration (MIC) against Escherichia coli and against Bacillus subtilis was 7.75 to 35.4 µg/mL (≈ 15.5 to 70.9 µM) each time.
For `Cc1ccc2cc(/C=C/C(=O)c3cccs3)c3nnnn3c2c1`, the MIC with Escherichia coli, in the assay on Pseudomonas aeruginosa, in the assay with Staphylococcus aureus, with Candida albicans and against Aspergillus niger was 6.25 to 100 µg/mL (≈ 19.5 to 312 µM) each time.
`Cc1ccc2c(c1)cc(C1CC(c3ccccn3)=NN1C(N)=S)c1nnnn12` (stereo unspecified): the MIC in the assay with Escherichia coli, in the assay with Pseudomonas aeruginosa, against Staphylococcus aureus, in the assay with Candida albicans and against Aspergillus niger was 3.12 to 100 µg/mL (≈ 8.04 to 257 µM) in each case.
For `O=C1S/C(=C\c2ccccc2)C(=O)N1Cc1ccc(-c2ccccc2-c2nnn[nH]2)cc1`, the MIC against Escherichia coli and against Bacillus subtilis was 7.75 to 35.4 µg/mL (≈ 17.6 to 80.6 µM) each time.
As for `Cc1ccc2c(c1)cc(C1CC(c3cccs3)=NN1C(N)=S)c1nnnn12` (stereo unspecified), the MIC in the assay on Escherichia coli, against Pseudomonas aeruginosa, with Staphylococcus aureus, in the assay with Candida albicans and in the assay on Aspergillus niger was 3.12 to 100 µg/mL (≈ 7.94 to 254 µM) in each case.
As for `Fc1ccc2c(c1)sc1nc(-c3cc4ccccc4n4nnnc34)c(NCCc3ccccc3)n12`, the minimum inhibitory concentration (MIC) in the assay with Escherichia coli, against Pseudomonas aeruginosa and with Staphylococcus aureus was more than 320 µg/mL in each case.
For the compound `CC(C)(C)Nc1c(-c2cc3ccccc3n3nnnc23)nc2sc(C#N)cn12`, the MIC against Escherichia coli, against Pseudomonas aeruginosa and against Staphylococcus aureus was more than 320 µg/mL throughout.
`Cc1ccc2cc(C3CC(c4ccccn4)=NN3C(N)=S)c3nnnn3c2c1` (stereo unspecified): the MIC against Escherichia coli, with Pseudomonas aeruginosa, in the assay with Staphylococcus aureus, against Candida albicans and against Aspergillus niger was 3.12 to 100 µg/mL (≈ 8.04 to 257 µM) each time.
Take `Cc1ccc2cc(C3CC(c4cccs4)=NN3C(N)=S)c3nnnn3c2c1` (stereo unspecified): the MIC with Escherichia coli, in the assay on Pseudomonas aeruginosa, in the assay on Staphylococcus aureus, against Candida albicans and in the assay with Aspergillus niger was 3.12 to 100 µg/mL (≈ 7.94 to 254 µM) throughout.
For `c1ccc2c(c1)cc(-c1nc3sccn3c1NC1CCCCC1)c1nnnn12`, the MIC against Escherichia coli, against Pseudomonas aeruginosa and in the assay on Staphylococcus aureus was more than 320 µg/mL each time.
Take `Cc1ccc2c(=O)c(OCc3nnn[nH]3)c(-c3ccc(F)cc3)oc2c1`: the MIC in the assay with Escherichia coli, against Pseudomonas aeruginosa, in the assay with Staphylococcus aureus and with Bacillus subtilis was 50 to 400 µg/mL (≈ 142 to 1140 µM) in each case.
As to `COc1cc(Cc2cnc(N)nc2N)cc(OC)c1OC` [TRIMETHOPRIM], the MIC with Escherichia coli was 125 µg/mL (≈ 431 µM); in the assay on Pseudomonas aeruginosa, 500 µg/mL (≈ 1720 µM); in the assay with Staphylococcus aureus, 250 µg/mL (≈ 861 µM).
For the compound `Cc1ccc2c(c1)cc(C1CC(c3ccccc3)=NN1C(N)=S)c1nnnn12` (stereo unspecified), the MIC against Escherichia coli, against Pseudomonas aeruginosa, in the assay on Staphylococcus aureus, with Candida albicans and in the assay with Aspergillus niger was 3.12 to 100 µg/mL (≈ 8.07 to 258 µM) in each case.

(Values after ChEMBL document CHEMBL4342421, “Current scenario of tetrazole hybrids for antibacterial activity” (Eur J Med Chem, 2019).)
